Source: the supplement of paper PMC7214452

Key:
Experiment in all cases: normalized area under the dose-response curve (viability relative to DMSO control) (fraction); higher = less sensitive (more viable cells)
Settings in all cases: exposure time not given
[1] = system: NCI-H929 (cancer type: MM)
Method: (§1)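 25 myeloma and 15 non-Hodgkin lymphoma cell lines were exposed to each of 76 drugs as 7-point log dilutions (0.01 nM–10 µM) in duplicate. Viability was read with CellTiter-Glo and normalised to DMSO (0.1%) and staurosporine (10 µM) plate controls. Normalised AUC was calculated by the trapezoidal method relative to the negative control.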

[2] = system: OCI-MY5/Vec (cancer type: MM)
Method: as §1

[3] = system: OCI-LY3 (cancer type: DLBCL)
Method: as §1

SKMM2 (cancer type: MM) = system: SKMM2 (cancer type: MM)
Method: as §1

[4] = system: SU-DHL2 (cancer type: DLBCL)
Method: as §1

[5] = system: Mino (cancer type: Mantle)
Method: as §1

AMO1 (cancer type: MM) = system: AMO1 (cancer type: MM)
Method: as §1

[6] = system: Granta-519 (cancer type: Mantle)
Method: as §1

MM1.R (cancer type: MM) = system: MM1.R (cancer type: MM)
Method: as §1

[7] = system: OCI-LY19 (cancer type: DLBCL)
Method: as §1

[8] = system: KMS12PE (cancer type: MM)
Method: as §1

LP1 (cancer type: MM) = system: LP1 (cancer type: MM)
Method: as §1

[9] = system: OCI-MY5 (cancer type: MM)
Method: as §1

[10] = system: KMS28BM (cancer type: MM)
Method: as §1

FR4 (cancer type: MM) = system: FR4 (cancer type: MM)
Method: as §1

[11] = system: KMS28PE (cancer type: MM)
Method: as §1

XG2 (cancer type: MM) = system: XG2 (cancer type: MM)
Method: as §1

KMS18 (cancer type: MM) = system: KMS18 (cancer type: MM)
Method: as §1

L363 (cancer type: MM) = system: L363 (cancer type: MM)
Method: as §1

EJM (cancer type: MM) = system: EJM (cancer type: MM)
Method: as §1

[12] = system: JVM2 (cancer type: Mantle)
Method: as §1

[13] = system: SU-DHL1 (cancer type: TCL)
Method: as §1

[14] = system: Karpas-299 (cancer type: TCL)
Method: as §1

OPM2 (cancer type: MM) = system: OPM2 (cancer type: MM)
Method: as §1

[15] = system: OCI-MY5/CRBN (cancer type: MM)
Method: as §1

KMS11 (cancer type: MM) = system: KMS11 (cancer type: MM)
Method: as §1

[16] = system: OCI-LY1 (cancer type: DLBCL)
Method: as §1

[17] = system: OCI-MY7 (cancer type: MM)
Method: as §1

[18] = system: HuT 78 (cancer type: TCL)
Method: as §1

U266 (cancer type: MM) = system: U266 (cancer type: MM)
Method: as §1

JJN3 (cancer type: MM) = system: JJN3 (cancer type: MM)
Method: as §1

[19] = system: SU-DHL6 (cancer type: DLBCL)
Method: as §1

[20] = system: RPMI 8226 (cancer type: MM)
Method: as §1

MM1.S (cancer type: MM) = system: MM1.S (cancer type: MM)
Method: as §1

KMS34 (cancer type: MM) = system: KMS34 (cancer type: MM)
Method: as §1

KMS26 (cancer type: MM) = system: KMS26 (cancer type: MM)
Method: as §1

My-La (cancer type: TCL) = system: My-La (cancer type: TCL)
Method: as §1

[21] = system: SR-786 (cancer type: TCL)
Method: as §1

[22] = system: JeKo-1 (cancer type: Mantle)
Method: as §1

Se-Ax (cancer type: TCL) = system: Se-Ax (cancer type: TCL)
Method: as §1

Row | Structure (SMILES) | normalized area under the dose-response curve [1] | normalized area under the dose-response curve [2] | normalized area under the dose-response curve [3] | normalized area under the dose-response curve (SKMM2 (cancer type: MM)) | normalized area under the dose-response curve [4] | normalized area under the dose-response curve [5] | normalized area under the dose-response curve (AMO1 (cancer type: MM)) | normalized area under the dose-response curve [6] | normalized area under the dose-response curve (MM1.R (cancer type: MM)) | normalized area under the dose-response curve [7] | normalized area under the dose-response curve [8] | normalized area under the dose-response curve (LP1 (cancer type: MM)) | normalized area under the dose-response curve [9] | normalized area under the dose-response curve [10] | normalized area under the dose-response curve (FR4 (cancer type: MM)) | normalized area under the dose-response curve [11] | normalized area under the dose-response curve (XG2 (cancer type: MM)) | normalized area under the dose-response curve (KMS18 (cancer type: MM)) | normalized area under the dose-response curve (L363 (cancer type: MM)) | normalized area under the dose-response curve (EJM (cancer type: MM)) | normalized area under the dose-response curve [12] | normalized area under the dose-response curve [13] | normalized area under the dose-response curve [14] | normalized area under the dose-response curve (OPM2 (cancer type: MM)) | normalized area under the dose-response curve [15] | normalized area under the dose-response curve (KMS11 (cancer type: MM)) | normalized area under the dose-response curve [16] | normalized area under the dose-response curve [17] | normalized area under the dose-response curve [18] | normalized area under the dose-response curve (U266 (cancer type: MM)) | normalized area under the dose-response curve (JJN3 (cancer type: MM)) | normalized area under the dose-response curve [19] | normalized area under the dose-response curve [20] | normalized area under the dose-response curve (MM1.S (cancer type: MM)) | normalized area under the dose-response curve (KMS34 (cancer type: MM)) | normalized area under the dose-response curve (KMS26 (cancer type: MM)) | normalized area under the dose-response curve (My-La (cancer type: TCL)) | normalized area under the dose-response curve [21] | normalized area under the dose-response curve [22] | normalized area under the dose-response curve (Se-Ax (cancer type: TCL))
1 | CC(C)C[C@H](NC(=O)[C@H](Cc1ccccc1)NC(=O)c1cnccn1)B(O)O [Bortezomib] | 0.09 | 0.015 | 0.0249 | 0.212 | 0.0391 | 0.0129 | 0.0751 | 0.0456 | 0.06 | 0.111 | 0.26 | 0.255 | 0.116 | 0.0704 | 0.7 | 0.0881 | 0.05 | 0.0645 | 0.0891 | 0.0632 | 0.0575 | 0.1 | 0.332 | 0.197 | 0.0146 | 0.131 | 0.0798 | 0.08 | 0.192 | 0.167 | 0.343 | 0.536 | 0.261 | 0.09 | 0.196 | 0.0685 | 0.23 | 0.285 | 0.009 | 0.102
2 | COc1cc(Nc2c(C#N)cnc3cc(OCCCN4CCN(C)CC4)c(OC)cc23)c(Cl)cc1Cl [Bosutinib] | 0.8 | 0.914 | 0.792 | 0.697 | 0.836 | 0.653 | 0.45 | 0.771 | 0.77 | 0.898 | 0.58 | 0.451 | 0.39 | 0.629 | 0.598 | 0.54 | 0.501 | 0.798 | 0.525 | 0.663 | 0.534 | 0.667 | 0.701 | 0.606 | 0.933 | 0.5 | 0.856 | 0.79 | 0.714 | 0.874 | 0.571 | 0.924 | 0.651 | 0.83 | 0.447 | 0.863 | 0.795 | 0.872 | 0.889 | 0.736
3 | COc1cc(N2CCC(N3CCN(C)CC3)CC2)ccc1Nc1ncc(Cl)c(Nc2ccccc2P(C)(C)=O)n1 [Brigatinib] | 0.39 | 0.785 | 0.921 | 0.789 | 0.936 | 0.863 | 0.525 | 0.84 | 0.51 | 0.803 | 0.79 | 0.598 | 0.574 | 0.539 | 0.723 | 0.191 | 0.745 | 0.469 | 0.538 | 0.55 | 0.855 | 0.123 | 0.504 | 0.179 | 0.835 | 0.466 | 0.989 | 0.83 | 0.524 | 0.5 | 0.527 | 0.891 | 0.351 | 0.46 | 0.308 | 0.611 | 0.76 | 0.556 | 0.815 | 0.748
4 | Nc1cc(C(F)(F)F)c(-c2cc(N3CCOCC3)nc(N3CCOCC3)n2)cn1 [Buparlisib] | 0.3 | 0.561 | 0.571 | 0.573 | 0.689 | 0.516 | 0.424 | 0.493 | 0.28 | 0.564 | 0.55 | 0.493 | 0.509 | 0.562 | 0.454 | 0.38 | 0.303 | 0.445 | 0.414 | 0.654 | 0.497 | 0.375 | 0.513 | 0.392 | 0.605 | 0.477 | 0.562 | 0.71 | 0.348 | 0.443 | 0.55 | 0.685 | 0.358 | 0.3 | 0.165 | 0.498 | 0.627 | 0.473 | 0.365 | 0.431
5 | Cc1noc2c1-c1ccccc1C(c1ccc(Cl)cc1)=N[C@H]2CC(N)=O [CPI0610] | 0.63 | 0.717 | 0.938 | 0.675 | 0.696 | 0.686 | 0.526 | 0.905 | 0.67 | 0.771 | 0.69 | 0.687 | 0.554 | 0.841 | 0.691 | 0.704 | 0.728 | 0.746 | 0.601 | 0.782 | 0.693 | 0.794 | 0.72 | 0.685 | 0.721 | 0.642 | 0.922 | 0.52 | 0.775 | 0.583 | 0.556 | 0.868 | 0.629 | 0.61 | 0.571 | 0.492 | 0.748 | 0.713 | 0.889 | 0.721
6 | COc1cc2nccc(Oc3ccc(NC(=O)C4(C(=O)Nc5ccc(F)cc5)CC4)cc3)c2cc1OC [Cabozantinib] | 0.61 | 0.729 | 0.865 | 0.798 | 0.917 | 0.951 | 0.715 | 0.863 | 0.59 | 0.867 | 0.72 | 0.803 | 0.605 | 0.793 | 0.743 | 0.645 | 0.734 | 0.789 | 0.762 | 0.756 | 0.63 | 0.895 | 0.918 | 0.631 | 0.858 | 0.628 | 0.956 | 0.82 | 0.762 | 0.672 | 0.706 | 0.91 | 0.719 | 0.59 | 0.68 | 0.94 | 0.94 | 0.964 | 0.852 | 0.721
7 | CC(C)C[C@H](NC(=O)[C@H](CCc1ccccc1)NC(=O)CN1CCOCC1)C(=O)N[C@@H](Cc1ccccc1)C(=O)N[C@@H](CC(C)C)C(=O)[C@@]1(C)CO1 [Carfilzomib] | 0.12 | 0.0171 | 0.0311 | 0.264 | 0.0281 | 0.0636 | 0.0997 | 0.094 | 0.07 | 0.0752 | 0.18 | 0.225 | 0.105 | 0.0754 | 0.638 | 0.11 | 0.0918 | 0.0656 | 0.095 | 0.104 | 0.0748 | 0.157 | 0.25 | 0.187 | 0.0124 | 0.128 | 0.0418 | 0.11 | 0.32 | 0.177 | 0.356 | 0.387 | 0.285 | 0.11 | 0.147 | 0.0786 | 0.19 | 0.25 | 0.0922 | 0.113
8 | Cc1cc(Nc2ncc(Cl)c(Nc3ccccc3S(=O)(=O)C(C)C)n2)c(OC(C)C)cc1C1CCNCC1 [Ceritinib] | 0.42 | 0.539 | 0.813 | 0.348 | 0.926 | 0.837 | 0.355 | 0.962 | 0.29 | 0.85 | 0.54 | 0.365 | 0.261 | 0.276 | 0.403 | 0.161 | 0.372 | 0.487 | 0.352 | 0.502 | 0.899 | 0.0824 | 0.61 | 0.193 | 0.622 | 0.344 | 0.966 | 0.63 | 0.534 | 0.413 | 0.281 | 0.877 | 0.303 | 0.32 | 0.0994 | 0.677 | 0.828 | 0.657 | 0.885 | 0.442
